Data published in patent US9828374B2, “Substituted pyrazino[2,2-a]isoquinoline derivatives” (Hoffmann-La Roche Inc., priority 2014, dated 2017).

How the values were obtained:
mouse TAAR1 = mouse TAAR1 (Mus musculus (Mouse), UniProt Q923Y8); test: Radioligand binding assay on mouse TAAR1; conditions: for Ki: mouse TAAR1, HEK-293 membranes, first value of the mouse/rat pair
Method: (§1) Construction of TAAR Expression Plasmids and Stably Transfected Cell Lines
(§2) For the construction of expression plasmids the coding sequences of human, rat and mouse TAAR 1 were amplified from genomic DNA essentially as described by Lindemann et al..
(§3) The Expand High Fidelity PCR System (Roche Diagnostics) was used with 1.5 mM Mg^2+ and purified PCR products were cloned into pCR2.1-TOPO cloning vector (Invitrogen) following the instructions of the manufacturer. PCR products were subcloned into the pIRESneo2 vector (BD Clontech, Palo Alto, Calif.), and expression vectors were sequence verified before introduction in cell lines.
(§4) HEK293 cells (ATCC # CRL-1573) were cultured essentially as described by Lindemann et al. (2005). For the generation of stably transfected cell lines HEK293 cells were transfected with the pIRESneo2 expression plasmids containing the TAAR coding sequences (described above) with Lipofectamine 2000 (Invitrogen) according to the instructions of the manufacturer, and 24 hrs post transfection the culture medium was supplemented with 1 mg/ml G418 (Sigma, Buchs, Switzerland). After a culture period of about 10 d clones were isolated, expanded and tested for responsiveness to trace amines (all compounds purchased from Sigma) with the cAMP Biotrak Enzyme immunoassay (EIA) System (Amersham) following the non-acetylation EIA procedure provided by the manufacturer.
Radioligand Binding Assay on Mouse TAAR1
(§5) Membrane Preparation and Radioligand Binding.
(§6) HEK-293 cells stably expressing mouse TAAR1 were maintained at 37° C. and 5% CO2 in DMEM high glucose medium, containing fetal calf serum (10%, heat inactivated for 30 min at 56° C.), penicillin/streptomycin (1%), and 375 μg/ml geneticin (Gibco). Cells were released from culture flasks using trypsin/EDTA, harvested, washed twice with ice-cold PBS (without Ca^2+ and Mg^2+), pelleted at 1,000 rpm for 5 min at 4° C., frozen and stored at −80° C. Frozen pellets were suspended in 20 ml HEPES-NaOH (20 mM, pH 7.4) containing 10 mM EDTA and homogenized with a Polytron (PT 6000, Kinematica) at 14,000 rpm for 20 s. The homogenate was centrifuged at 48,000×g for 30 min at 4° C. Subsequently, the supernatant was removed and discarded, and the pellet resuspended in 20 ml HEPES-NaOH (20 mM, pH 7.4) containing 0.1 mM EDTA using the Polytron (20 s at 14,000 rpm). This procedure was repeated and the final pellet resuspended in HEPES-NaOH containing 0.1 mM EDTA and homogenized using the Polytron. Typically, aliquots of 2 ml membrane portions were stored at −80° C. With each new membrane batch the dissociation constant (Kd) was determined via a saturation curve. […] Nonspecific binding was defined as the amount of ^3[H]-(S)-4-[(ethyl-phenyl-amino)-methyl]-4,5-dihydro-oxazol-2-ylamine bound in the presence of 10 μM unlabeled ligand. All compounds were tested at a broad range of concentrations (10 pM to 10 μM) in duplicates. […] The 96 deep well plates were incubated for 1 hr at 4° C. Incubations were terminated by rapid filtration through Unifilter-96 plates (Packard Instrument Company) and glass filters GF/C (Perkin Elmer) presoaked for 1 hr in polyethylenimine (0.3%) and washed 3 times with 1 ml of cold binding buffer. After addition of 45 μl of Microscint 40 (PerkinElmer) the Unifilter-96 plate was sealed and after 1 hr the radioactivity counted using a TopCount Microplate Scintillation Counter (Packard Instrument Company).

rat TAAR1 = rat TAAR1 (Rattus norvegicus (Rat), UniProt Q923Y9); test: Radioligand binding assay on rat TAAR1; conditions: for Ki: rat TAAR1, HEK-293 membranes, second value of the mouse/rat pair
Sequence of rat TAAR1 (Q923Y9 whole entry): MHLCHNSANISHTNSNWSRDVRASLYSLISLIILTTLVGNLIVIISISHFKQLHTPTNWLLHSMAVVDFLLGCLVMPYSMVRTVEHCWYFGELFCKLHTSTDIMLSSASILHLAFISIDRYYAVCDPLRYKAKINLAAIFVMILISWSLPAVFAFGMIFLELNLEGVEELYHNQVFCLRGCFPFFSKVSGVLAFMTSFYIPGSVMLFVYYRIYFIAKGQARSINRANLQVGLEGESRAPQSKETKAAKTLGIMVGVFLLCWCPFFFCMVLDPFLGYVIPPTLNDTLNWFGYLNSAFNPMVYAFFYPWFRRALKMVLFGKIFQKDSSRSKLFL
Method: as §1, §2, §3, §4
Radioligand Binding Assay on Rat TAAR1
as §5
as §6, with “rat” for “mouse”, “[H]-(S)-4-[(ethyl-phenyl-amino)-methyl]-4,5-dihydro-oxazol-2-ylamine” for “^3[H]-(S)-4-[(ethyl-phenyl-amino)-methyl]-4,5-dihydro-oxazol-2-ylamine”, “[…]” for “pM”

Sequence of mouse TAAR1 (Q923Y8 whole entry): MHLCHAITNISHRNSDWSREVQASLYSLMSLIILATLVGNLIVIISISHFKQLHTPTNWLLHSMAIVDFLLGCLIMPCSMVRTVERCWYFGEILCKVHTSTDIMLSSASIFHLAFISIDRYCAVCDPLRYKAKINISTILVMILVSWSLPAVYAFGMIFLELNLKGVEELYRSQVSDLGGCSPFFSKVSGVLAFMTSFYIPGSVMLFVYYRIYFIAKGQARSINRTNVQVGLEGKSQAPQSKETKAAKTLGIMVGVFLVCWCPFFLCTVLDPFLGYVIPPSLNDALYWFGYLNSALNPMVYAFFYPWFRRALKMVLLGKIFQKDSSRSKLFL

Structure (SMILES)	Ki (mouse TAAR1)	Ki (rat TAAR1)	Kd (mouse TAAR1; mouse TAAR1 membranes, saturation curve, usual value, read-out: dissociation constant (Kd) of the radioligand)	Kd (rat TAAR1; rat TAAR1 membranes, saturation curve, usual value, read-out: dissociation constant (Kd) of the radioligand)
FC(F)(F)c1cnc(Nc2ccc3c(c2)CCN2CCNC[C@@H]32)cn1 [Example 7, (11bR)-N-[5-(trifluoromethyl)pyrazin-2-yl]-2,3,4,6,7,11b-hexahydro-1H-pyrazino[2,1-a]isoquinolin-9-amine]	0.0329 µM	0.0356 µM	–	–
COc1cc(Nc2ccc3c(c2)CCN2CCNC[C@@H]32)nc(C(F)(F)F)n1 [Example 18, (11bR)-N-[6-methoxy-2-(trifluoromethyl)pyrimidin-4-yl]-2,3,4,6,7,11b-hexahydro-1H-pyrazino[2,1-a]isoquinolin-9-amine]	0.0439 µM	0.0092 µM	–	–
CCN(C[C@H]1COC(N)=N1)c1ccccc1 [^3[H]-(S)-4-[(ethyl-phenyl-amino)-methyl]-4,5-dihydro-oxazol-2-ylamine, reference compound]	–	–	~0.7 nM	~2.3 nM
O=C(Nc1ccc(Cl)cc1)c1ccc2c(c1)CCN1CCNC[C@@H]21 [Example 44, (11bR)-N-(4-chlorophenyl)-2,3,4,6,7,11b-hexahydro-1H-pyrazino[2,1-a]isoquinoline-9-carboxamide]	0.0161 µM	0.274 µM	–	–
O=C(Nc1ccc2c(c1F)CCN1CCNC[C@@H]21)c1ccnc(C(F)(F)F)c1 [Example 32, N-[(11bR)-8-fluoro-2,3,4,6,7,11b-hexahydro-1H-pyrazino[2,1-a]isoquinolin-9-yl]-2-(trifluoromethyl)pyridine-4-carboxamide]	0.444 µM	7.63 µM	–	–
CC(C)c1cc(C(=O)Nc2ccc3c(c2)CCN2CCNC[C@@H]32)n(C)n1 [Example 39, (R)-N-(2,3,4,6,7,11b-hexahydro-1H-pyrazino[2,1-a]isoquinolin-9-yl)-3-isopropyl-1-methyl-1H-pyrazole-5-carboxamide]	1.07 µM	0.869 µM	–	–
c1cc2c(cc1C1CC1)CCN1CCNC[C@@H]21 [Example 29, (11bR)-9-cyclopropyl-2,3,4,6,7,11b-hexahydro-1H-pyrazino[2,1-a]isoquinoline]	1.81 µM	0.815 µM	–	–
FC(F)(F)c1cnc(Nc2ccc3c(c2)CCN2CCNC[C@@H]32)nc1 [Example 6, (11bR)-N-[5-(trifluoromethyl)pyrimidin-2-yl]-2,3,4,6,7,11b-hexahydro-1H-pyrazino[2,1-a]isoquinolin-9-amine]	0.0374 µM	0.0195 µM	–	–
FC(F)(F)c1ccnc(Nc2ccc3c(c2)CCN2CCNC[C@@H]32)n1 [Example 24, (11bR)-N-[4-(trifluoromethyl)pyrimidin-2-yl]-2,3,4,6,7,11b-hexahydro-1H-pyrazino[2,1-a]isoquinolin-9-amine]	0.0599 µM	0.0471 µM	–	–
FC(F)(F)c1cnc(Nc2ccc3c(c2)CCN2CCNC[C@H]32)cn1 [Example 12, (11bS)-N-[5-(trifluoromethyl)pyrazin-2-yl]-2,3,4,6,7,11b-hexahydro-1H-pyrazino[2,1-a]isoquinolin-9-amine]	0.219 µM	1.98 µM	–	–
FC(F)(F)c1nccc(Nc2ccc3c(c2)CCN2CCNC[C@H]32)n1 [Example 11, (11bS)-N-[2-(trifluoromethyl)pyrimidin-4-yl]-2,3,4,6,7,11b-hexahydro-1H-pyrazino[2,1-a]isoquinolin-9-amine]	1.18 µM	0.904 µM	–	–
CCc1n[nH]c(C(=O)Nc2ccc3c(c2)CCN2CCNC[C@@H]32)c1C [Example 41, (R)-3-ethyl-N-(2,3,4,6,7,11b-hexahydro-1H-pyrazino[2,1-a]isoquinolin-9-yl)-4-methyl-1H-pyrazole-5-carboxamide]	0.145 µM	0.288 µM	–	–
FC(F)(F)c1nccc(Nc2ccc3c(c2)CCN2CCNC[C@@H]32)n1 [Example 5, (11bR)-N-[2-(trifluoromethyl)pyrimidin-4-yl]-2,3,4,6,7,11b-hexahydro-1H-pyrazino[2,1-a]isoquinolin-9-amine]	0.0354 µM	0.0151 µM	–	–
O=C(Nc1ccc2c(c1)CCN1CCNC[C@H]21)c1ccnc(C(F)(F)F)c1 [Example 9, N-[(11bS)-2,3,4,6,7,11b-hexahydro-1H-pyrazino[2,1-a]isoquinolin-9-yl]-2-(trifluoromethyl)pyridine-4-carboxamide]	0.0144 µM	0.0142 µM	–	–
O=C(Nc1ccc2c(c1)CCN1CCNC[C@@H]21)c1ccnc(C(F)(F)F)c1 [Example 1, N-[(11bR)-2,3,4,6,7,11b-hexahydro-1H-pyrazino[2,1-a]isoquinolin-9-yl]-2-(trifluoromethyl)pyridine-4-carboxamide]	0.121 µM	0.199 µM	–	–
O=C(Nc1ccc2c(c1)CCN1CCNC[C@@H]21)c1ccc(Cl)cc1 [Example 3, N-[(11bR)-2,3,4,6,7,11b-hexahydro-1H-pyrazino[2,1-a]isoquinolin-9-yl]-4-chloro-benzamide]	0.0096 µM	0.0562 µM	–	–
COc1ccc(NC(=O)c2ccc3c(c2)CCN2CCNC[C@@H]32)cn1 [Example 45, (11bR)-N-(6-methoxy-3-pyridyl)-2,3,4,6,7,11b-hexahydro-1H-pyrazino[2,1-a]isoquinoline-9-carboxamide]	0.299 µM	> 1.5 µM	–	–
Fc1c(Nc2ncc(C3CC3)cn2)ccc2c1CCN1CCNC[C@@H]21 [Example 33, (11bR)-N-(5-cyclopropylpyrimidin-2-yl)-8-fluoro-2,3,4,6,7,11b-hexahydro-1H-pyrazino[2,1-a]isoquinolin-9-amine]	0.0677 µM	0.105 µM	–	–
Cc1cc(C(=O)Nc2ccc3c(c2)CCN2CCNC[C@@H]32)nc(C(F)(F)F)n1 [Example 38, (R)-N-(2,3,4,6,7,11b-hexahydro-1H-pyrazino[2,1-a]isoquinolin-9-yl)-6-methyl-2-(trifluoromethyl)pyrimidine-4-carboxamide]	0.222 µM	0.157 µM	–	–
Cc1cc(Nc2ccc3c(c2)CCN2CCNC[C@@H]32)nc(C(F)(F)F)n1 [Example 20, (11bR)-N-[6-methyl-2-(trifluoromethyl)pyrimidin-4-yl]-2,3,4,6,7,11b-hexahydro-1H-pyrazino[2,1-a]isoquinolin-9-amine]	0.0364 µM	0.0112 µM	–	–
O=C(NCc1cccc(C(F)(F)F)c1)c1ccc2c(c1)CCN1CCNC[C@@H]21 [Example 43, (11bR)-N-[[3-(trifluoromethyl)phenyl]methyl]-2,3,4,6,7,11b-hexahydro-1H-pyrazino[2,1-a]isoquinoline-9-carboxamide]	0.0301 µM	0.137 µM	–	–
